Measured values: patent publication US20240158446A1, “CYCLIC COMPOUND HAVING SELECTIVE INHIBITORY ACTION ON KRAS OVER HRAS AND NRAS” (CHUGAI SEIYAKU KABUSHIKI KAISHA, priority 2021, published 2024)
*1 amine or outer side, *2 acyl side, *3 side chain or, on linkers, in order; H or OH if unused. Where a SMILES comes first, the peptide text is derived from it. Bridges are numbered along the chain shown (N, C = ends). [ ]: non-standard residue; d: D form. The star is where a group is joined. hPhe(3-Cl-4-CF3) = N[C@@H](CCc1ccc(C(F)(F)F)c(Cl)c1)C(=O)O; X2 = CCCN([C@@H](COC1CCC1)C(=O)[*:2])[*:1]; NMeGly(cPent) = CN[C@H](C(=O)O)C1CCCC1; NMeD = CN[C@@H](CC(=O)O)C(=O)O; NMeL = CN[C@@H](CC(C)C)C(=O)O; Morpholide = C1CN(*)CCO1; Ac4c = NC1(C(=O)O)CCC1; Sar = CNCC(=O)O

How the values were obtained:
[1] = molecular target: GDP-bound KRAS wild-type protein (Homo sapiens, UniProt P01116); assay: Binding to KRAS by surface plasmon resonance (SPR), Single Cycle Kinetics; details: SPR, Single Cycle Kinetics, GDP-bound KRAS wild-type protein; read-out: KRAS KD
[2] = tested on: human lung cancer strain NCI-H441; assay: cells; details: NCI-H441, 96 h, read-out: NCI-H441 IC50 (nM), NCI-H441 cell proliferation, 4 days, CellTiter-Glo;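 note: cell proliferation inhibition after four days measured by CellTiter-Glo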
[3] = molecular target: GDP-bound HRAS wild-type protein (Homo sapiens, UniProt P01112); assay: Binding to HRAS by surface plasmon resonance (SPR), Single Cycle Kinetics; details: ratio of KD for GDP-bound HRAS wild-type protein to KD for KRAS, SPR
[4] = molecular target: GDP-bound NRAS wild-type protein (Homo sapiens, UniProt P01111); assay: Binding to NRAS by surface plasmon resonance (SPR), Single Cycle Kinetics; details: ratio of KD for GDP-bound NRAS wild-type protein to KD for KRAS, SPR
Chain of GDP-bound NRAS wild-type protein (P01111 whole entry): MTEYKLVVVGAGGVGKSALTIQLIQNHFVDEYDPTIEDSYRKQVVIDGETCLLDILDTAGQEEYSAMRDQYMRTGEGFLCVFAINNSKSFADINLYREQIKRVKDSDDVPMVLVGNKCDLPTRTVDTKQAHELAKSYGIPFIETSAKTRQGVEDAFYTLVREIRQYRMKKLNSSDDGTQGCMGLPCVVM

Chain of GDP-bound KRAS wild-type protein (P01116 whole entry): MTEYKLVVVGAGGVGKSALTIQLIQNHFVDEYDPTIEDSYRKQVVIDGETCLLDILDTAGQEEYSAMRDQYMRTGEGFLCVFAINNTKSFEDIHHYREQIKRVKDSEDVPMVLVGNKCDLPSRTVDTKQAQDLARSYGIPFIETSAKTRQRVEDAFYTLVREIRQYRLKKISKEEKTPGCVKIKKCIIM
Chain of GDP-bound HRAS wild-type protein (P01112 whole entry): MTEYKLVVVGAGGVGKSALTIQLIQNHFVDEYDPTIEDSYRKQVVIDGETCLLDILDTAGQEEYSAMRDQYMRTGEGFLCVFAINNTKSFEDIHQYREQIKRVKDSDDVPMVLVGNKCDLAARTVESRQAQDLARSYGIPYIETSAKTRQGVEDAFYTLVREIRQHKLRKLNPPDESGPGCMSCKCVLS

Compound | Kd [1] | IC50 [2] | HRAS/KRAS (KD ratio) [3] | NRAS/KRAS (KD ratio) [4]
CCCN(C)C(=O)[C@@H]1CC(=O)N(C)[C@@H](CCOC)C(=O)N[C@@H]([C@@H](C)CC)C(=O)N(C)CC(=O)N(C)[C@H]2C/C=C\CCN(C2=O)[C@@H](Cc2ccc(C(F)(F)F)cc2)C(=O)N(C)CC(=O)N[C@@H](CCc2ccc(C(F)(F)F)c(OC)c2)C(=O)N2C[C@H](OCC)C[C@H]2C(=O)NC2(CC(C)(C)C2)C(=O)N(C)[C@@H](C2CCCC2)C(=O)N1C [PP1975] | 0.11 nM | 13.4 nM | A (a compound having 10 or more and less than 20 is denoted as A) | A (a compound having 10 or more and less than 20 is denoted as A)
CC[C@H](C)[C@@H]1NC(=O)[C@H](CC)N(C)C(=O)C[C@@H](C(=O)N(C)C)N(C)C(=O)[C@H](C2CCCC2)N(C)C(=O)C2(CCC2)N(C)C(=O)[C@@H]2CCCN2C(=O)[C@H](CCc2cc(F)c(C(F)(F)F)c(F)c2)NC(=O)CN(C)C(=O)[C@H](Cc2ccc(C(F)(F)F)cc2)N2CC/C=C\C[C@@H](C2=O)N(C)C(=O)CN(C)C1=O [PP1780] | 0.065 nM | 8.2 nM | A (a compound having 10 or more and less than 20 is denoted as A) | A (a compound having 10 or more and less than 20 is denoted as A)
CCO[C@@H]1C[C@H]2C(=O)NC3(CCC3)C(=O)N(C)[C@@H](C(CC)CC)C(=O)N(C)[C@H](CC)CC(=O)N(C)[C@@H](CC)C(=O)N[C@@H]([C@@H](C)CC)C(=O)N(C)CC(=O)N(C)[C@H]3C/C=C\CCN(C3=O)[C@@H](Cc3ccc(C(F)(F)F)cc3)C(=O)N(C)CC(=O)N[C@@H](CCc3cc(F)c(C(F)(F)F)c(F)c3)C(=O)N2C1 [PP1624] | 1.1 nM | 55.8 nM | A (a compound having 10 or more and less than 20 is denoted as A) | A (a compound having 10 or more and less than 20 is denoted as A)
CCO[C@@H]1C[C@H]2C(=O)NC3(CC(C)(C)C3)C(=O)N(C)[C@@H](C3CCCC3)C(=O)N(C)[C@H](C(=O)N(C)C)CC(=O)N(C)[C@@H](CC)C(=O)N[C@@H]([C@@H](C)CC)C(=O)N(C)CC(=O)N(C)[C@H]3C/C=C\CCN(C3=O)[C@@H](Cc3ccc(C(F)(F)F)cc3)C(=O)N(C)CC(=O)N[C@@H](CCc3ccc(C(F)(F)F)c(Cl)c3)C(=O)N2C1 [PP1746] | 0.054 nM | 1.9 nM | A (a compound having 10 or more and less than 20 is denoted as A) | A (a compound having 10 or more and less than 20 is denoted as A)
CCCN(C)C(=O)[C@@H]1CC(=O)N(C)[C@@H](CC2CCC2)C(=O)N[C@@H]([C@@H](C)CC)C(=O)N(C)CC(=O)N(C)[C@H]2C/C=C\CCN(C2=O)[C@@H](Cc2ccc(C(F)(F)F)cc2)C(=O)N(C)CC(=O)N[C@@H](CCc2cc(F)c(C(F)(F)F)c(F)c2)C(=O)N2C[C@H](OCC)C[C@H]2C(=O)NC2(CCC2)C(=O)N(C)[C@@H](C2CCCC2)C(=O)N1C [PP1705] | 0.14 nM | 8 nM | A (a compound having 10 or more and less than 20 is denoted as A) | AA (a compound having 20 or more is denoted as AA)

Second part, led by results:

Kd [1] | IC50 [2] | Compound | HRAS/KRAS (KD ratio) [3] | NRAS/KRAS (KD ratio) [4]
0.34 nM | 11.3 nM | CC[C@H](C)[C@@H]1NC(=O)[C@H](C(C)C)N(C)C(=O)C[C@@H](C(=O)N(C)CC)N(C)C(=O)[C@H](C2CCCC2)N(C)C(=O)C2(CC(C)(C)C2)NC(=O)[C@@H]2C[C@H](C)CN2C(=O)[C@H](CCc2ccc(C(F)(F)F)c(OC)c2)NC(=O)CN(C)C(=O)[C@H](Cc2ccc(C(F)(F)F)cc2)N2CC/C=C\C[C@@H](C2=O)N(C)C(=O)CN(C)C1=O [PP2003] | B (a compound having 3 or more and less than 10 is denoted as B) | A (a compound having 10 or more and less than 20 is denoted as A)
0.26 nM | 8.4 nM | CCO[C@@H]1C[C@H]2C(=O)NC3(CC(C)(C)C3)C(=O)N(C)[C@@H](C3CCCC3)C(=O)N(C)[C@H](C(=O)N(C)C)CC(=O)N(C)[C@@H](CC3CCC3)C(=O)N[C@@H]([C@@H](C)CC)C(=O)N(C)CC(=O)N(C)[C@H]3C/C=C\CCN(C3=O)[C@@H](Cc3ccc(C(F)(F)F)cc3)C(=O)N(C)CC(=O)N[C@@H](CCc3cc(F)c(Cl)c(F)c3)C(=O)N2C1 [PP1762] | A (a compound having 10 or more and less than 20 is denoted as A) | A (a compound having 10 or more and less than 20 is denoted as A)
0.45 nM | 20.9 nM | CCO[C@@H]1C[C@H]2C(=O)NC3(CC(F)(F)C3)C(=O)N(C)[C@@H](C3CCCC3)C(=O)N3CCC[C@@H]3CC(=O)N(C)[C@@H](CC3CC3)C(=O)N[C@@H]([C@@H](C)CC)C(=O)N(C)CC(=O)N(C)[C@H]3C/C=C\CCN(C3=O)[C@@H](Cc3ccc(C(F)(F)F)cc3)C(=O)N(C)CC(=O)N[C@@H](CCc3cc(F)c(C(F)(F)F)c(F)c3)C(=O)N2C1 [PP1615] | B (a compound having 3 or more and less than 10 is denoted as B) | B (a compound having 3 or more and less than 10 is denoted as B)
1.2 nM | 63.8 nM | CCCN1C(=O)CN(C)C(=O)CN(C)C(=O)[C@H]([C@@H](C)CC)NC(=O)[C@H](CC(C)C)N(C)C(=O)C[C@@H](C(=O)N2CCOCC2)N(C)C(=O)[C@H](C2CCCC2)N(C)C(=O)C2(CCC2)NC(=O)[C@@H]2CCCN2C(=O)[C@H](CCc2ccc(C(F)(F)F)c(Cl)c2)NC(=O)CN(C)C(=O)[C@@H]1COC1CCC1 [PP1816] ([NMeL]I[Sar][Sar][X2][Sar][hPhe(3-Cl-4-CF3)]P[Ac4c][NMeGly(cPent)][NMeD]-Morpholide; lactam N-11) | C (A compound having a KD ratio of 0.1 or more and less than 3 is denoted as C) | B (a compound having 3 or more and less than 10 is denoted as B)
0.12 nM | 13.3 nM | CCOC[C@H]1C(=O)N[C@@H]([C@@H](C)CC)C(=O)N(C)CC(=O)N(C)[C@H]2C/C=C\CCN(C2=O)[C@@H](Cc2ccc(C(F)(F)F)cc2)C(=O)N(C)CC(=O)N[C@@H](CCc2ccc(C(F)(F)F)c(OC)c2)C(=O)N2C[C@@H](C)C[C@H]2C(=O)NC2(CC(C)(C)C2)C(=O)N(C)[C@@H](C2CCCC2)C(=O)N(C)[C@H](C(=O)N(C)CC)CC(=O)N1C [PP1993] | A (a compound having 10 or more and less than 20 is denoted as A) | A (a compound having 10 or more and less than 20 is denoted as A)
0.07 nM | 12.3 nM | CC[C@H](C)[C@@H]1NC(=O)[C@H](CC)N(C)C(=O)C[C@@H](C(=O)N(C)C)N(C)C(=O)[C@H](C2CCCC2)N(C)C(=O)C2(CC(C)(C)C2)NC(=O)[C@@H]2C[C@H](C)CN2C(=O)[C@H](CCc2ccc(C(F)(F)F)c(Cl)c2)NC(=O)CN(C)C(=O)[C@H](Cc2ccc(C)cc2)N2CC/C=C\C[C@@H](C2=O)N(C)C(=O)CN(C)C1=O [PP1844] | B (a compound having 3 or more and less than 10 is denoted as B) | A (a compound having 10 or more and less than 20 is denoted as A)
